Results reported in patent US20250057973A1, “Exosomes for treating glioblastoma multiforme and manufacturing method thereof” (China Medical University, priority 2023, published 2025).

How the values were obtained:
[1] = test system: GBM cell line U87; assay: Cell death rate of GBM cells in the blood-brain barrier cell culture model; format: cell-based; details: U87, BBB model
Procedure: The blood-brain barrier cell culture model 10 includes a first culture area 11 and a second culture area 12, with multiple perforations 13 connecting the first culture area 11 and the second culture area 12. The first culture area 11 and the second culture area 12 are filled with a hydrogel A. The GBM cell line U87 is cultured in the hydrogel A of the first culture area 11, while endothelial cells 20, pericytes 30, and astrocytes 40 are sequentially arranged in the second culture area 12. Wherein the resistance value of the blood-brain barrier cell culture model 10 is set to 214462 Ω.cm^2 to establish an impedance environment of the blood-brain barrier. In subsequent experiments, the drug carrier is given to the second culture area 12 of the blood-brain barrier cell culture model 10, and experimental analysis is performed on the GBM cell line U87 in the first culture area 11 to confirm the efficacy and therapeutic effect of the drug carrier crossing from the second culture area 12 to the first culture area 11. […]

[2] = test system: GBM cell line (U87); assay: Animal model of glioblastoma multiforme (U87 implanted into mouse brain): body weight, survival, tumor growth; format: in vivo, mice
Procedure: To corroborate the actual effect of the drug carrier in living organisms, in a further experiment, 10^6 cells of the GBM cell line (U87) were implanted into the brains of mice to establish an animal model of glioblastoma multiforme. Seven days after the implantation surgery, the mice were administered the chemotherapy drug and/or drug carrier via intravenous injection, and imaging was used to confirm the growth status of the chemotherapy drug and/or drug carrier and the GBM cell line in the mouse brain. […]
FIGS. 10D and 10E further analyze the fluorescence expression (intensity (10^6)) of the GBM cell line in the brain area of the experimental mice in each group, and present the tissue morphology through hematoxylin-eosin staining (H&E staining) technique in the tissue section staining images to analyze the growth status of the GBM cells. […]

Compound: Cn1nnc2c(C(N)=O)ncn2c1=O [TMZ, Temodal]
- cell death rate (%) of the GBM cells ([1]; 1st to 3rd day overall): significant cell death rate
- cell death rate (%) of the GBM cells, third day ([1]; by the third day): tended to moderate
- survival rate of the experimental mice ([2]; U87 brain-implanted mice, intravenous injection): increased
- growth of the GBM cell line in brain (fluorescence intensity) ([2]; compared with Clt and αHLA-G EV groups): inhibited to some extent
